Experimental data as given in patent US9464084B2, “P2X7 modulators” (Janssen Pharmaceutica NV, priority 2013, dated 2016).

biological target: P2X7 (Homo sapiens (Human), UniProt Q99572); assay: P2X7 antagonism in human PBMCs (LPS + Bz-ATP induced IL-1β release, ELISA); format: cell-based; details: compound 10 μM, LPS 30 ng/ml, Bz-ATP 0.5 mM;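 also: PBMCs from donor human blood, with a further 1.5 h incubation of the cells in the assay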
Sequence (Q99572 whole entry): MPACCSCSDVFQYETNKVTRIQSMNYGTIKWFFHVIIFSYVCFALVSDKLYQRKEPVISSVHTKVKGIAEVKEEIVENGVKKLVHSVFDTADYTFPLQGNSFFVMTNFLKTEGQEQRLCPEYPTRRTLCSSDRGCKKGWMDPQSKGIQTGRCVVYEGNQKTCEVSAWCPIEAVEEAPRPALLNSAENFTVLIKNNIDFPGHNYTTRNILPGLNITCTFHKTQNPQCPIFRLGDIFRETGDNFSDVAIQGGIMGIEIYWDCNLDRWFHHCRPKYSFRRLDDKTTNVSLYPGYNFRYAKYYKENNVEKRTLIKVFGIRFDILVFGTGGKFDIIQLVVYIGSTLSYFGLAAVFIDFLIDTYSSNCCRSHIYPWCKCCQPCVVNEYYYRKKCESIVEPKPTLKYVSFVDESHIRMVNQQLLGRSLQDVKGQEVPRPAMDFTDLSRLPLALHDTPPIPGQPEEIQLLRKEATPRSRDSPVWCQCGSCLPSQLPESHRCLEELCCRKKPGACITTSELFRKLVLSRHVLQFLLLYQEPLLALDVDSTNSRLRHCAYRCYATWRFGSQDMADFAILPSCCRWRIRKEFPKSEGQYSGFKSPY

First: COc1ccnc(-n2nnc3c2CCN(C(=O)c2cccc(C(F)(F)F)c2Cl)[C@H]3C)c1 (single isomer, unassigned) [Example 151, (R*)-(2-Chloro-3-(trifluoromethyl)phenyl)(1-(4-methoxypyridin-2-yl)-4-methyl-6,7-dihydro-1H-[1,2,3]triazolo[4,5-c]pyridin-5(4H)-yl)methanone]
Second: COc1ccnc(-n2nnc3c2CCN(C(=O)c2cccc(C(F)(F)F)c2Cl)[C@@H]3C)c1 (single isomer, unassigned) [Example 152, (S*)-(2-Chloro-3-(trifluoromethyl)phenyl)(1-(4-methoxypyridin-2-yl)-4-methyl-6,7-dihydro-1H-[1,2,3]triazolo[4,5-c]pyridin-5(4H)-yl)methanone]
The “PBMC 10 μM (% control)” value of the first is higher: 19.5 % control for the first, 15.4 % control for the second.

Compared with `C[C@H]1c2nnn(-c3ncc(F)cn3)c2CCN1C(=O)c1cccc(C(F)(F)F)c1Cl` (single isomer, unassigned) [Example 157, (S*)-(2-Chloro-3-(trifluoromethyl)phenyl)(1-(5-fluoropyrimidin-2-yl)-4-methyl-6,7-dihydro-1H-[1,2,3]triazolo[4,5-c]pyridin-5(4H)-yl)methanone], `C[C@@H]1c2nnn(-c3ncc(F)cn3)c2CCN1C(=O)c1cccc(C(F)(F)F)c1Cl` (single isomer, unassigned) [Example 158, (R*)-(2-Chloro-3-(trifluoromethyl)phenyl)(1-(5-fluoropyrimidin-2-yl)-4-methyl-6,7-dihydro-1H-[1,2,3]triazolo[4,5-c]pyridin-5(4H)-yl)methanone] is higher in “PBMC 10 μM (% control)” value: −1.4 % control for the first, 1.1 % control for the second.

First: C[C@H]1c2nnn(-c3ncc(F)cn3)c2CCN1C(=O)c1ccnc(C(F)(F)F)c1Cl (single isomer, unassigned) [Example 164, (S*)-(3-chloro-2-(trifluoromethyl)pyridin-4-yl)(1-(5-fluoropyrimidin-2-yl)-4-methyl-6,7-dihydro-1H-[1,2,3]triazolo[4,5-c]pyridin-5(4H)-yl)methanone]
Second: C[C@H]1Cc2c(nnn2-c2ncc(F)cn2)CN1C(=O)c1ccnc(C(F)(F)F)c1Cl (single isomer, unassigned) [Example 183, (R*)-(3-chloro-2-(trifluoromethyl)pyridin-4-yl)(1-(5-fluoropyrimidin-2-yl)-6-methyl-6,7-dihydro-1H-[1,2,3]triazolo[4,5-c]pyridin-5(4H)-yl)methanone]
The “PBMC 10 μM (% control)” value of the first is higher: 98.1 % control for the first, −1.2 % control for the second.

Going from `C[C@@H]1Cc2c(nnn2-c2ncccc2F)CN1C(=O)c1cccc(Cl)c1Cl` (single isomer, unassigned) [Example 165, (6R*)-5-[(2,3-Dichlorophenyl)carbonyl]-1-(3-fluoropyridin-2-yl)-6-methyl-4,5,6,7-tetrahydro-1H-[1,2,3]triazolo[4,5-c]pyridine] to `C[C@H]1Cc2c(nnn2-c2ncccc2F)CN1C(=O)c1cccc(Cl)c1Cl` (single isomer, unassigned) [Example 166, (6S*)-5-[(2,3-Dichlorophenyl)carbonyl]-1-(3-fluoropyridin-2-yl)-6-methyl-4,5,6,7-tetrahydro-1H-[1,2,3]triazolo[4,5-c]pyridine], the “PBMC 10 μM (% control)” value falls from 60.7 % control to 0.6 % control.

Compared with `C[C@@H]1Cc2c(nnn2-c2ncccc2F)CN1C(=O)c1cccc(C(F)(F)F)c1Cl` (single isomer, unassigned) [Example 167, (6R*)-5-{[2-Chloro-3-(trifluoromethyl)phenyl]carbonyl}-1-(3-fluoropyridin-2-yl)-6-methyl-4,5,6,7-tetrahydro-1H-[1,2,3]triazolo[4,5-c]pyridine], `C[C@H]1Cc2c(nnn2-c2ncccc2F)CN1C(=O)c1cccc(C(F)(F)F)c1Cl` (single isomer, unassigned) [Example 168, (6S*)-5-{[2-Chloro-3-(trifluoromethyl)phenyl]carbonyl}-1-(3-fluoropyridin-2-yl)-6-methyl-4,5,6,7-tetrahydro-1H-[1,2,3]triazolo[4,5-c]pyridine] is lower in “PBMC 10 μM (% control)” value: 4.2 % control for the first, −4.2 % control for the second.

Going from `C[C@@H]1c2nnn(-c3ccn(C)n3)c2CCN1C(=O)c1cccc(C(F)(F)F)c1Cl` (single isomer, unassigned) [Example 169, (R*)-(2-Chloro-3-(trifluoromethyl)phenyl)(4-methyl-1-(1-methyl-1H-pyrazol-3-yl)-6,7-dihydro-1H-[1,2,3]triazolo[4,5-c]pyridin-5(4H)-yl)methanone] to `Cc1ccnc(-n2nnc3c2CCN(C(=O)c2cccc(C(F)(F)F)c2Cl)[C@@H]3C)c1` (single isomer, unassigned) [Example 185, (R*)-(2-chloro-3-(trifluoromethyl)phenyl)(4-methyl-1-(4-methylpyridin-2-yl)-6,7-dihydro-1H-[1,2,3]triazolo[4,5-c]pyridin-5(4H)-yl)methanone], the “PBMC 10 μM (% control)” value falls from 95.0 % control to −3.7 % control.

First: C[C@H]1c2nnn(-c3ncc(F)cn3)c2CCN1C(=O)c1cccc(C(F)(F)F)c1F (single isomer, unassigned) [Example 178, (S*)-(2-fluoro-3-(trifluoromethyl)phenyl)(1-(5-fluoropyrimidin-2-yl)-4-methyl-6,7-dihydro-1H-[1,2,3]triazolo[4,5-c]pyridin-5(4H)-yl)methanone]
Second: C[C@@H]1c2nnn(-c3ncc(F)cn3)c2CCN1C(=O)c1cccc(C(F)(F)F)c1F (single isomer, unassigned) [Example 190, (R*)-(2-fluoro-3-(trifluoromethyl)phenyl)(1-(5-fluoropyrimidin-2-yl)-4-methyl-6,7-dihydro-1H-[1,2,3]triazolo[4,5-c]pyridin-5(4H)-yl)methanone]
The “PBMC 10 μM (% control)” value of the first is lower: −4.7 % control for the first, 7.1 % control for the second.

Compared with `Cc1cc(C)nc(-n2nnc3c2CCN(C(=O)c2cccc(C(F)(F)F)c2Cl)[C@H]3C)n1` (single isomer, unassigned) [Example 182, (S*)-(2-chloro-3-(trifluoromethyl)phenyl)(1-(4,6-dimethylpyrimidin-2-yl)-4-methyl-6,7-dihydro-1H-[1,2,3]triazolo[4,5-c]pyridin-5(4H)-yl)methanone], `Cc1ccnc(-n2nnc3c2CCN(C(=O)c2cccc(C(F)(F)F)c2Cl)[C@H]3C)c1` (single isomer, unassigned) [Example 186, (S*)-(2-chloro-3-(trifluoromethyl)phenyl)(4-methyl-1-(4-methylpyridin-2-yl)-6,7-dihydro-1H-[1,2,3]triazolo[4,5-c]pyridin-5(4H)-yl)methanone] is lower in “PBMC 10 μM (% control)” value: 62.5 % control for the first, −0.5 % control for the second.

Compared with `Cc1c(C(=O)N2Cc3nnn(-c4ncc(F)cn4)c3C[C@H]2C)ccnc1C(F)(F)F` (single isomer, unassigned) [Example 187, (S*)-(1-(5-fluoropyrimidin-2-yl)-6-methyl-6,7-dihydro-1H-[1,2,3]triazolo[4,5-c]pyridin-5(4H)-yl)(3-methyl-2-(trifluoromethyl)pyridin-4-yl)methanone], `C[C@@H]1Cc2c(nnn2-c2ncc(F)cn2)CN1C(=O)c1cccc(C(F)(F)F)c1Cl` (single isomer, unassigned) [Example 201, (6R*)-5-{[2-Chloro-3-(trifluoromethyl)phenyl]carbonyl}-1-(5-fluoropyrimidin-2-yl)-6-methyl-4,5,6,7-tetrahydro-1H-[1,2,3]triazolo[4,5-c]pyridine] is higher in “PBMC 10 μM (% control)” value: −0.6 % control for the first, 20.4 % control for the second.

Going from `Cc1c(C(=O)N2CCc3c(nnn3-c3ncccn3)[C@H]2C)cccc1C(F)(F)F` (single isomer, unassigned) [Example 188, (R*)-(4-methyl-1-(pyrimidin-2-yl)-6,7-dihydro-1H-[1,2,3]triazolo[4,5-c]pyridin-5(4H)-yl)(2-methyl-3-(trifluoromethyl)phenyl)methanone] to `Cc1c(C(=O)N2CCc3c(nnn3-c3ncccn3)[C@@H]2C)cccc1C(F)(F)F` (single isomer, unassigned) [Example 197, (S*)-(4-methyl-1-(pyrimidin-2-yl)-6,7-dihydro-1H-[1,2,3]triazolo[4,5-c]pyridin-5(4H)-yl)(2-methyl-3-(trifluoromethyl)phenyl)methanone], the “PBMC 10 μM (% control)” value rises from −0.7 % control to 2.1 % control.

First: C[C@@H]1c2ncn(-c3ncc(F)cn3)c2CCN1C(=O)c1cccc(C(F)(F)F)c1Cl (single isomer, unassigned) [Example 193, (R*)-(2-Chloro-3-(trifluoromethyl)phenyl)(1-(5-fluoropyrimidin-2-yl)-4-methyl-6,7-dihydro-1H-imidazo[4,5-c]pyridin-5(4H)-yl)methanone]
Second: C[C@H]1c2ncn(-c3ncc(F)cn3)c2CCN1C(=O)c1cccc(C(F)(F)F)c1Cl (single isomer, unassigned) [Example 194, (S*)-(2-Chloro-3-(trifluoromethyl)phenyl)(1-(5-fluoropyrimidin-2-yl)-4-methyl-6,7-dihydro-1H-imidazo[4,5-c]pyridin-5(4H)-yl)methanone]
The “PBMC 10 μM (% control)” value of the first is higher: 1.4 % control for the first, −12.8 % control for the second.

Going from `C[C@H]1Cc2c(nnn2-c2ncc(F)cn2)CN1C(=O)c1cccc(C(F)(F)F)c1Cl` (single isomer, unassigned) [Example 202, (6S*)-5-{[2-Chloro-3-(trifluoromethyl)phenyl]carbonyl}-1-(5-fluoropyrimidin-2-yl)-6-methyl-4,5,6,7-tetrahydro-1H-[1,2,3]triazolo[4,5-c]pyridine] to `C[C@@H]1Cc2c(nnn2-c2ncc(F)cn2)CN1C(=O)c1cccc(Cl)c1Cl` (single isomer, unassigned) [Example 204, (6R*)-5-[(2,3-Dichlorophenyl)carbonyl]-1-(5-fluoropyrimidin-2-yl)-6-methyl-4,5,6,7-tetrahydro-1H-[1,2,3]triazolo[4,5-c]pyridine], the “PBMC 10 μM (% control)” value rises from 24.1 % control to 180.6 % control.

In the case of `C[C@H]1Cc2c(nnn2-c2ncc(F)cn2)CN1C(=O)c1cccc(Cl)c1Cl` (single isomer, unassigned) [Example 205, (6S*)-5-[(2,3-Dichlorophenyl)carbonyl]-1-(5-fluoropyrimidin-2-yl)-6-methyl-4,5,6,7-tetrahydro-1H-[1,2,3]triazolo[4,5-c]pyridine], the “PBMC 10 μM (% control)” value is reported as 17.1 % control.
